{
  "source": "paper PMC7414093",
  "about": "(Proceedings of the National Academy of Sciences of the …, 2020)",
  "key": {"[1]": {"experiment": "in vitro", "conditions": "dog, CC50, compound alone, 72 h"}, "[2]": {"tested_on": "MDCK-SIAT1 cells", "conditions": "for cytotoxic concentration (CC)50: dog"}, "[3]": {"tested_on": "H1N1 virus expressing A/Solomon Islands/3/2006 (H1/SI06)", "experiment": "microbe, parasite or virus in culture", "type": "cell-based, influenza A virus"}, "[4]": {"tested_on": "H5N1 pseudovirus expressing H5 A/Vietnam/1203/2004", "experiment": "organism not typed", "type": "cell-based, influenza A virus", "conditions": "72 h, read-out: EC50, virus neutralization"}, "[5]": {"tested_on": "H1N1 virus expressing A/Beijing/262/1995 (H1/Beijing)", "experiment": "microbe, parasite or virus in culture", "type": "cell-based", "conditions": "Influenza A virus, H1N1, 72 h, read-out: EC50, virus neutralization"}, "[6]": {"target": "H5 A/Vietnam/1203/2004 HA (Influenza A virus, UniProt Q5EP31)", "experiment": "biochemical", "type": "binding"}, "[7]": {"experiment": "Solubility in PBS", "type": "physicochemical", "conditions": "aqueous buffer"}, "[8]": {"experiment": "in vitro", "conditions": "human, pH 7.4"}, "[9]": {"tested_on": "human cells", "design": "method as in PMID 30846569", "conditions": "cited from earlier work"}},
  "note": "“And” between values parts separate entries of the source, which are not always exact repeats. Equal values may be shown once.",
  "data": [
    {"smiles": "O=C(c1ccc(Cl)cc1Cl)N1CCO[C@H](c2ccccc2)C1", "note": "[F0045(R)]", "values": [
      {"measurement": "CC50", "setting": "[1]", "value": 138, "unit": "µM"},
      {"measurement": "cytotoxic concentration (CC)50", "setting": "[2]", "value": "> 130", "unit": "µM"}
    ]},
    {"smiles": "O=C(c1ccc(Cl)cc1Cl)N1CCO[C@@H](c2ccccc2)C1", "note": "[F0045(S)]", "values": [
      {"measurement": "protection from infection (in words)", "setting": "[3]", "value": "did not protect cells from infection"},
      {"measurement": "EC50", "setting": "[3]; Influenza A virus, H1N1, 72 h, read-out: EC50, virus neutralization", "value": "> 150", "unit": "µM"},
      {"measurement": "EC50", "setting": "[4]", "value": "22.8 ± 2.3", "unit": "µM"},
      {"measurement": "EC50", "setting": "[5]", "value": "1.6 ± 0.1", "unit": "µM"},
      {"measurement": "EC50", "setting": "[6]", "value": "16.2 ± 3.4", "unit": "µM"},
      {"measurement": "solubility", "setting": "[7]", "value": "> 500", "unit": "µM"},
      {"measurement": "k el", "setting": "[8]; 0.42 mg", "value": 0.000283, "unit": "s⁻¹"},
      {"measurement": "half-life", "setting": "[8]; microsomes", "value": 40.8, "unit": "min"},
      {"measurement": "microsomal CLint", "setting": "[8]; microsomes", "value": 41, "unit": "µL/min/mg"},
      {"measurement": "CC50", "setting": "[1]", "value": 102, "unit": "µM"},
      {"measurement": "cytotoxic concentration (CC)50", "setting": "[2]", "value": "> 130", "unit": "µM"},
      {"measurement": "CC50", "setting": "[2]; read-out: CC50, compound alone, 72 h", "value": "157 µM and 84 µM and 98 µM"}
    ]},
    {"smiles": "CC(=O)Nc1ccc2oc(-c3ccnc(C(=O)N4CCN([C@H](c5ccccc5)c5nnn(C)n5)CC4)c3)nc2c1", "note": "[JNJ4796]", "values": [
      {"measurement": "CC50", "setting": "[9]", "value": "> 10", "unit": "µM"}
    ]}
  ]
}
